Data on eleven compounds can be found in patent US20230406865A1, “CRYSTAL FORM OF FREE BASE OF INHIBITOR CONTAINING BICYCLIC RING DERIVATIVE AND PREPARATION METHOD AND APPLICATION OF CRYSTAL FORM” (SHANGHAI HANSOH BIOMEDICAL CO., LTD., priority 2020, published 2023).

Broadly, the IC50 is the midpoint of a concentration-inhibition curve.

The target in assay [1] is T1, KDR kinase (Homo sapiens, UniProt P35968).
T1 construct: purchased Carna 08-191
Briefly: HTRF kinase activity inhibition, KDR. The assay is classed as biochemical. The conditions noted are these: for IC50: HTRF, ATP at Km; for Ratio (KDR/RET): KDR IC50 / RET IC50. An excerpt:
2.2 Experimental Reagents: • KDR kinase was purchased from Carna Company, and the article number was 08-191; • HTRF KinEASE-TK kit was purchased from Cisbio Company, and the article number was 62TK0PEC; • ATP was purchased from Thermofisher Company, and the article number was PV3227; • 384-well plate was purchased from PerkinElmer Company, and the article number was 6007290.
In this experiment, the homogeneous time-resolved fluorescence (HTRF) method was used for the detection of compounds on KDR kinase activity.

For assay [2], the system named is TT cells (MTC, RET C634W). Briefly: Inhibition of proliferation of TT cells (CellTiter-Glo, 72 h). Type of assay: cell-based. The conditions noted are these: Homo sapiens. How it is done: TT cells were purchased from the cell bank of the Chinese Academy of Sciences.
When TT cells were cultured to the appropriate fusion level, TT cells were collected, and the cells were adjusted to the appropriate cell concentration using complete medium, and the cell suspension was spread in a 96-well plate, 90 μL per well, and placed to the wall of a 37° C., 5% CO2 incubator overnight; and compound solutions of different concentrations were prepared using DMSO and culture medium; and a solvent control was set, the compound solution was added to a 96-well plate, 10 μL per well, and placed to the wall of a 37° C., 5% CO2 incubator for 72 hours; CellTiter-Glo solution was added thereto and the mixture was mixed well by shaking, incubated for 10 minutes in the dark, and read by BioTek Synergy H1 microplate reader.
The IC50 values were obtained by using luminescence signal values to calculate the inhibition rate, the concentration and the inhibition rate were fitted to a nonlinear regression curve using Graphpad Prism software.
In general terms: In ATP-based viability assays light output follows the ATP content of the culture.

Assay [3] concerns the target T2, RET kinase (Homo sapiens, UniProt P07949).
T2 construct: purchased Carna 08-159
Briefly: HTRF kinase activity inhibition, RET wild-type. The assay is classed as biochemical. The conditions noted are these: ATP at Km. An excerpt:
2.2 Experimental Reagents: • RET enzyme was purchased from Carna Company, and the article number was 08-159; • RET M918T enzyme was purchased from Carna Company, and the article number was 08-508; • KIF5B-RET was purchased from SignalChem Company, the article number was R02-19FG-05; • CCDC6-RET was purchased from SignalChem Company, the article number was R02-19BG-05; • RET V804M enzyme was purchased from Thermofisher Company, and the article number was PV6223; • RET V804L enzyme was purchased from Thermofisher Company, and the article number was PV4397; • HTRF KinEASE-TK kit was purchased from Cisbio Company, and the article number was 62TK0PEC; • ATP was purchased from Thermofisher Company, and the article number was PV3227; • 384-well plate was purchased from PerkinElmer Company, and the article number was 6007290.
In this experiment, a homogeneous time-resolved fluorescence (HTRF) method was used for the detection of compounds on RET kinase activity.
On the technique in general: Time-resolved FRET reads energy transfer from a long-lived donor to a nearby acceptor.

Assay [4] addresses T3, Ba/F3 KIF5B-RET cells (Homo sapiens, UniProt P07949).
T3 construct: fused on or other part: P33176 (Kinesin-1 heavy chain)
The assay can be described thus: Inhibition of proliferation of Ba/F3 KIF5B-RET cells (CellTiter-Glo). The assay is classed as cell-based. To be noted: 72 to 144 hours. Here is the method:
When Ba/F3 KIF5B-RET cells were cultured to the appropriate cell density, cells were collected, and the cells were adjusted to the appropriate cell concentration using complete medium, and the cell suspension was spread in a 96-well plate, 90 μL per well, and placed in the wall of a 37° C., 5% CO2 incubator overnight; compound solutions of different concentrations were prepared using DMSO and culture medium; a solvent control was set, and the compound solution was added to a 96-well plate with […] at 37° C. in a 5% CO2 incubator for 72 to 144 hours, CellTiter-Glo solution was added thereto and mixed well by shaking, incubated for 10 minutes in the dark, and read by BioTek Synergy H1 microplate reader.
The IC50 values were obtained by using the luminescence signal values to calculate the inhibition rate, the concentrations and the inhibition rates were fitted to a nonlinear regression curve using Graphpad Prism software.

T1 sequence (P35968 20-1356): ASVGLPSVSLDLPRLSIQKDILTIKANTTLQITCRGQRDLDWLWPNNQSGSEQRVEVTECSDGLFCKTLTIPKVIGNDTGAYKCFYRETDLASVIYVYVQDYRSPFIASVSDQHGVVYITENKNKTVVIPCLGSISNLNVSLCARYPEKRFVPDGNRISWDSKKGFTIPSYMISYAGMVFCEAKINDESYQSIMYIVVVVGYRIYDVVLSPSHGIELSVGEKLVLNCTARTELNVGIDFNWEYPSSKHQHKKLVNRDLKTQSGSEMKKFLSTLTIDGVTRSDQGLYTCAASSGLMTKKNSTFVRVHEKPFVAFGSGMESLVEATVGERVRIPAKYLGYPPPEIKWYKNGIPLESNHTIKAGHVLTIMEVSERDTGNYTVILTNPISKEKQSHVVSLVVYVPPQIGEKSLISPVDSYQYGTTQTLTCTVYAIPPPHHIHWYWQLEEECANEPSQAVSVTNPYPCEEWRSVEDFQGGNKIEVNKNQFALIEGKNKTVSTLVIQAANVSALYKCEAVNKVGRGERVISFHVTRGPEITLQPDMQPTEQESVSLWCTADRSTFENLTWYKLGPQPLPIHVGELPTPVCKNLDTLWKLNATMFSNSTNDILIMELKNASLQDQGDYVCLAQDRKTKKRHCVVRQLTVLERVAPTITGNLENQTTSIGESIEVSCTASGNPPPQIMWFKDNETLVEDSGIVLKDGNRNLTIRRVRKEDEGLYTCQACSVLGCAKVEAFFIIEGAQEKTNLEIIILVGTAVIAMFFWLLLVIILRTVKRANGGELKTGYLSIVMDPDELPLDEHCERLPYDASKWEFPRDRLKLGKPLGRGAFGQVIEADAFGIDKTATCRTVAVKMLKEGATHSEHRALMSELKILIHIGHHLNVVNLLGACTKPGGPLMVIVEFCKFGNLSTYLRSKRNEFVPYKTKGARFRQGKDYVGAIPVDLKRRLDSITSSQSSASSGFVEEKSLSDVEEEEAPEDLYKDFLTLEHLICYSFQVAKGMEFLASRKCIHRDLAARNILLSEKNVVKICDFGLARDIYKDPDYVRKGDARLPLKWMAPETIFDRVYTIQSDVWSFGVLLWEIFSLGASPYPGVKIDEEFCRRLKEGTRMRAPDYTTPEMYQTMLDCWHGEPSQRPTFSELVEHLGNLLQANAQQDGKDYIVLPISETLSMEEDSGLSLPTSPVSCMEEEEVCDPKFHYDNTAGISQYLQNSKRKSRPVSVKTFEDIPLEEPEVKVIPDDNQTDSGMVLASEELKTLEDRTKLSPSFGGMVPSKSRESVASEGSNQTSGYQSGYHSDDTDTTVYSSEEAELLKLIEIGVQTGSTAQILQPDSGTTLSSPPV
T3 sequence (P07949 whole entry, change not shown, the tested form may be a part): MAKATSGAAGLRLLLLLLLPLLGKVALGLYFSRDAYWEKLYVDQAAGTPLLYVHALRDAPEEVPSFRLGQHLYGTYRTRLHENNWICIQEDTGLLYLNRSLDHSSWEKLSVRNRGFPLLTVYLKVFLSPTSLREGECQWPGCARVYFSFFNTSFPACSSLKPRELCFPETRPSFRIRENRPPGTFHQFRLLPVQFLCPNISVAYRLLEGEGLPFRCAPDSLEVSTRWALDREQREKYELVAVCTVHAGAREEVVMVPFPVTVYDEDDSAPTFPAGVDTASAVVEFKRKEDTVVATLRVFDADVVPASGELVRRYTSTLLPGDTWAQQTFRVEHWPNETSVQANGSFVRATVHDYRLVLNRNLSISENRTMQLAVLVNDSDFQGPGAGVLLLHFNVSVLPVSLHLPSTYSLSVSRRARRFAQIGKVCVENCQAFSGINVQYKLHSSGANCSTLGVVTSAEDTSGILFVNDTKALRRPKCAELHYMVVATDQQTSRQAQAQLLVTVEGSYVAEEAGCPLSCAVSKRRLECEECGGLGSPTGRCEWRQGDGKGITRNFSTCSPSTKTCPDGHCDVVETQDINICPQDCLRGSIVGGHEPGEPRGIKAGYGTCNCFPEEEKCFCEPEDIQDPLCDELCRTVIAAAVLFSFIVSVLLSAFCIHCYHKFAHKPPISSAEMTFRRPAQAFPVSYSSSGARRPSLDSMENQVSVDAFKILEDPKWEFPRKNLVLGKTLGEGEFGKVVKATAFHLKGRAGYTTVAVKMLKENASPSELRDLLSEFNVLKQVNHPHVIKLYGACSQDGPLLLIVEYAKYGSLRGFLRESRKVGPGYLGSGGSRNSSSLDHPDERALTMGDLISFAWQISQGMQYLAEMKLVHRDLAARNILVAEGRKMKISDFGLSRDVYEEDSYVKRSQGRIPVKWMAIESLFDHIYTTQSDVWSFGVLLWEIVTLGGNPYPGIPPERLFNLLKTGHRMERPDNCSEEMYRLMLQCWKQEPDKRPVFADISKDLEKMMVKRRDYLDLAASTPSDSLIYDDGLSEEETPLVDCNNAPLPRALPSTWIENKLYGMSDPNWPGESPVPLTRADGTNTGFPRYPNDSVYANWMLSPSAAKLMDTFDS
T2 sequence (P07949 29-1114): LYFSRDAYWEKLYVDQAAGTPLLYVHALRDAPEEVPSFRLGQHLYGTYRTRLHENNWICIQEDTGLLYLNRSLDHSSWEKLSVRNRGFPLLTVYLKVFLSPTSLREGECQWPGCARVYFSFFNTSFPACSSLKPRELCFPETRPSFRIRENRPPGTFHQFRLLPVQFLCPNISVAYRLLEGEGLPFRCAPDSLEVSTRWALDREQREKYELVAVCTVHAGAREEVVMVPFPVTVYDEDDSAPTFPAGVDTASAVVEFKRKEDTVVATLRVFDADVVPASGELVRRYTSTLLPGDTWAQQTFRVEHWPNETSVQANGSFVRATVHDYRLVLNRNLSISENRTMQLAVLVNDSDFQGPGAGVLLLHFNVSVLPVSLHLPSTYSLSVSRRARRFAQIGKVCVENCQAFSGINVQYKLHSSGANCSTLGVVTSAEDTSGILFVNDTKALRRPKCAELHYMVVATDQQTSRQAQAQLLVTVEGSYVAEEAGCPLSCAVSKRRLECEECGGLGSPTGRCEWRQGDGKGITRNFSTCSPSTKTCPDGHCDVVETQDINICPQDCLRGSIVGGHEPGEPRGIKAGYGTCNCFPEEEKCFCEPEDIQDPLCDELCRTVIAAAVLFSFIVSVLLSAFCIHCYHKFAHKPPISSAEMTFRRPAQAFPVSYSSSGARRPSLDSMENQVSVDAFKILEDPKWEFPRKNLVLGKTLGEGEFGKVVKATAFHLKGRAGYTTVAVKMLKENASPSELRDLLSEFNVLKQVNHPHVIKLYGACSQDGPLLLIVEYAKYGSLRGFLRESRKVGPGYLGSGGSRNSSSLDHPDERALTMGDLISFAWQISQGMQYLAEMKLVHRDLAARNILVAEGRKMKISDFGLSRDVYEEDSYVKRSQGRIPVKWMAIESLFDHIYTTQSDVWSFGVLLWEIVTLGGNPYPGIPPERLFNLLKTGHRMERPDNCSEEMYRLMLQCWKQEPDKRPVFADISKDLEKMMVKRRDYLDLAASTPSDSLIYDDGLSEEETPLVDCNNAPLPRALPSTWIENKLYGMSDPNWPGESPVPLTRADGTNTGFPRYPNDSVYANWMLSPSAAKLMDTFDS

Take `COc1ccc(CN2C3CC2CN(c2ccc(-c4cc(OCC5CCS(=N)(=O)CC5)cn5ncc(C#N)c45)cn2)C3)cn1` (centres unmarked) [Embodiment 54, 6-((1-Imino-1-hydroxyhexahydro-1l6-thiopyran-4-yl)methoxy)-4-(6-(6-((6-methoxypyridin-3-yl)methyl)-3,6-diazabicyclo[3.1.1]heptan-3-yl)pyridin-3-yl)pyrazolo[1,5-a]pyridine-3-carbonitrile]: the IC50 in assay [1] worked out at 9 nM; in assay [2], 9 nM; in assay [3], 0.34 nM. The “Ratio (KDR/RET)” value in assay [1] amounted to 26.
For `CC(C)(O)C#Cc1cc(-c2ccc(N3CC4CC(C3)N4Cc3ccc(OC4CC4)nc3)nc2)c2c(C#N)cnn2c1` [Embodiment 26, 4-(6-(6-((6-Cyclopropoxypyridin-3-yl)methyl)-3,6-diazabicyclo[3.1.1]heptan-3-yl)pyridin-3-yl)-6-(3-hydroxy-3-methylbut-1-yn-1-yl)pyrazolo[1,5-a]pyridine-3-carbonitrile], in assay [2], the IC50 amounted to 19 nM.
Regarding `COc1ccc(CN2C3CC2CN(c2ccc(-c4cc(C#CCC(C)(C)O)cn5ncc(C#N)c45)cn2)C3)cn1` [Embodiment 48, 6-(4-Hydroxy-4-methylpent-1-yn-1-yl)-4-(6-(6-((6-methoxypyridin-3-yl)methyl)-3,6-diazabicyclo[3.1.1]heptan-3-yl)pyridin-3-yl)pyrazolo[1,5-a]pyridine-3-carbonitrile], the IC50 was 13 nM in assay [1], 19.6 nM in assay [2] and 0.42 nM in assay [3]. Further, the “Ratio (KDR/RET)” value in assay [1] is reported as 30.
For `COc1ccc(CN2C3CC2CN(c2ccc(-c4cc(OCC56CC(O)(C5)C6)cn5ncc(C#N)c45)cn2)C3)cn1` [Embodiment 47, 6-((3-Hydroxybicyclo[1.1.1]pentan-1-yl)methoxy)-4-(6-(6-((6-methoxypyridin-3-yl)methyl)-3,6-diazabicyclo[3.1.1]heptan-3-yl)pyridin-3-yl)pyrazolo[1,5-a]pyridine-3-carbonitrile] the same measures were 176 nM, 13.3 nM, 0.4 nM and 438.
Consider `[2H]C([2H])([2H])Oc1ccc(CN2C3CC2CN(c2ccc(-c4cc(N5CC(C(C)(C)O)C5)cn5ncc(C#N)c45)cn2)C3)cn1` [Embodiment 41, 6-(3-(2-Hydroxypropan-2-yl)azetidin-1-yl)-4-(6-(6-((6-(methoxy-d3)pyridin-3-yl)methyl)-3,6-diazabicyclo[3.1.1]heptan-3-yl)pyridin-3-yl)pyrazolo[1,5-a]pyridine-3-carbonitrile], for which the results for the IC50 in assay [1], in assay [2] and in assay [3] were 11 nM, 9.45 nM and 0.4 nM, respectively. In assay [1], the “Ratio (KDR/RET)” value stood at 27.
As to `COc1ccc(CN2C3CC2CN(c2ccc(-c4cc(C#CC(O)C5CC5)cn5ncc(C#N)c45)cn2)C3)cn1` (centres unmarked) [Embodiment 19, 6-(3-Cyclopropyl-3-hydroxyprop-1-yn-1-yl)-4-(6-(6-((6-methoxypyridin-3-yl)methyl)-3,6-diazabicyclo[3.1.1]heptan-3-yl)pyridin-3-yl)pyrazolo[1,5-a]pyridine-3-carbonitrile], in assay [4], the IC50 turned out to be 27.8 nM.
`CC1(NC(=O)c2ncccc2Cl)CCN(c2ccc(-c3cc(OCC4(N)CC4)cn4ncc(C#N)c34)cn2)CC1` [Embodiment 91, N-(1-(5-(6-((1-aminocyclopropyl)methoxy)-3-cyanopyrazolo[1,5-a]pyridin-4-yl)pyridin-2-yl)-4-methylpiperidin-4-yl)-3-chloropicolinamide]: the results for the IC50 in assay [1], in assay [2] and in assay [3] were 204 nM, 29.6 nM and 1.54 nM, respectively. Besides, the “Ratio (KDR/RET)” value in assay [1] turned out to be 133.
`COc1ccc(CN2C3CC2CN(c2ccc(-c4cc(C#C[C@H](C)O)cn5ncc(C#N)c45)cn2)C3)cn1` [Embodiment 21, 6-((S)-3-Hydroxybut-1-yn-1-yl)-4-(6-(6-((6-methoxypyridin-3-yl)methyl)-3,6-diazabicyclo[3.1.1]heptan-3-yl)pyridin-3-yl)pyrazolo[1,5-a]pyridine-3-carbonitrile]: the IC50 worked out at 9.4 nM in assay [1], 18.1 nM in assay [2] and 0.41 nM in assay [3]. In assay [1], the “Ratio (KDR/RET)” value was 23.
Taken in the same sequence, the figures for `COc1ccc(CN2C3CC2CN(c2ccc(-c4cc(N5CC6(C5)CC(C)(O)C6)cn5ncc(C#N)c45)cn2)C3)cn1` [Embodiment 32, 6-(6-Hydroxy-6-methyl-2-azaspiro[3.3]heptan-2-yl)-4-(6-(6-((6-methoxypyridin-3-yl)methyl)-3,6-diazabicyclo[3.1.1]heptan-3-yl)pyridin-3-yl)pyrazolo[1,5-a]pyridine-3-carbonitrile] were 1.8 nM, 2.07 nM, 0.49 nM and 4.
For the compound `COc1ccc(CN2C3CC2CN(c2ccc(-c4cc(OCC5(C#N)CC5)cn5ncc(C#N)c45)cn2)C3)cn1` [Embodiment 27, 6-((1-Cyanocyclopropyl)methoxy)-4-(6-(6-((6-methoxypyridin-3-yl)methyl)-3,6-diazabicyclo[3.1.1]heptan-3-yl)pyridin-3-yl)pyrazolo[1,5-a]pyridine-3-carbonitrile], the IC50 is 88 nM in assay [1], 15.9 nM in assay [4] and 0.32 nM in assay [3]. Moreover, the “Ratio (KDR/RET)” value in assay [1] stood at 280.
For `COCC(C)(O)C#Cc1cc(-c2ccc(N3CC4CC(C3)N4Cc3cnc(OC)c(F)c3)nc2)c2c(C#N)cnn2c1` (centres unmarked) [Embodiment 61, 4-(6-(6-((5-Fluoro-6-methoxypyridin-3-yl)methyl)-3,6-diazabicyclo[3.1.1]heptan-3-yl)pyridin-3-yl)-6-(3-hydroxy-4-methoxy-3-methylbut-1-yn-1-yl)pyrazolo[1,5-a]pyridine-3-carbonitrile] the same measures were 11.2 nM, 16.8 nM, 0.35 nM and 32.
